Data: PMC5218480 (PLoS ONE, 2017)

Test system: MV-4-11 cells
Experiment: Gene expression microarray analysis (Affymetrix PrimeView) and GSEA
Format: cell-based, human
Set-up: RFU PODN (11730768_x_at) / Fold change /veh PODN (11730768_x_at) / RFU LINC00158 (11744669_a_at) / Fold change /veh LINC00158 (11744669_a_at) / RFU DUSP10 (11751237_a_at) / Fold change /veh DUSP10 (11751237_a_at) / RFU ID3 (11757404_x_at) / Fold change /veh ID3 (11757404_x_at) / RFU PLEKHG5 (11737974_s_at) / Fold change /veh PLEKHG5 (11737974_s_at) / RFU LRRC4B (11730491_at) / Fold change /veh LRRC4B (11730491_at) / RFU GIMAP4 (11747438_a_at) / Fold change /veh GIMAP4 (11747438_a_at) / RFU KRT8 (11758183_x_at) / Fold change /veh KRT8 (11758183_x_at) / RFU CNN1 (11734310_a_at) / Fold change /veh CNN1 (11734310_a_at) / RFU VPS37D (11726825_at) / Fold change /veh VPS37D (11726825_at) / RFU C10orf10 (11716522_x_at) / Fold change /veh C10orf10 (11716522_x_at) / RFU KIR2DL2 /// KIR2DL4 /// KIR2DL5A /// KIR2DL5B /// KIR2DS1 /// KIR2DS2 /// KIR2DS3 /// KIR2DS4 /// KIR3DL3 /// KIR3DL3 /// KIR3DS1 (11738374_at) / Fold change /veh KIR2DL2 /// KIR2DL4 /// KIR2DL5A /// KIR2DL5B /// KIR2DS1 /// KIR2DS2 /// KIR2DS3 /// KIR2DS4 /// KIR3DL3 /// KIR3DL3 /// KIR3DS1 (11738374_at) / RFU C1QL1 (11718748_at) / Fold change /veh C1QL1 (11718748_at) / RFU TMPRSS4 (11747572_a_at) / Fold change /veh TMPRSS4 (11747572_a_at) / RFU HAMP (11756126_x_at) / Fold change /veh HAMP (11756126_x_at) / RFU RNFT2 (11725882_a_at) / Fold change /veh RNFT2 (11725882_a_at) / RFU NR4A2 (11747474_a_at) / Fold change /veh NR4A2 (11747474_a_at) / RFU ABCC12 (11746883_a_at) / Fold change /veh ABCC12 (11746883_a_at) / RFU TMEM136 (11760407_x_at) / Fold change /veh TMEM136 (11760407_x_at) / RFU CLDN22 /// WWC2 (11732394_at) / Fold change /veh CLDN22 /// WWC2 (11732394_at) / RFU HLA-DPB1 (11760878_x_at) / Fold change /veh HLA-DPB1 (11760878_x_at) / RFU SPINT1 (11716480_a_at) / Fold change /veh SPINT1 (11716480_a_at) / RFU GAP43 (11754022_s_at) / Fold change /veh GAP43 (11754022_s_at) / RFU A4GNT (11735810_at) / Fold change /veh A4GNT (11735810_at) / RFU PRB3 (11715151_x_at) / Fold change /veh PRB3 (11715151_x_at) / RFU TUBB4B (11761932_at) / Fold change /veh TUBB4B (11761932_at) / RFU CAPN14 (11732068_a_at) / Fold change /veh CAPN14 (11732068_a_at) / RFU TMCC2 (11721928_a_at) / Fold change /veh TMCC2 (11721928_a_at) / RFU IRGQ (11745062_a_at) / Fold change /veh IRGQ (11745062_a_at) / RFU FAM174B (11720279_a_at) / Fold change /veh FAM174B (11720279_a_at) / RFU TMPRSS4 (11748680_a_at) / Fold change /veh TMPRSS4 (11748680_a_at) / RFU FAM212B (11763350_a_at) / Fold change /veh FAM212B (11763350_a_at) / RFU PLEKHG5 (11743358_a_at) / Fold change /veh PLEKHG5 (11743358_a_at) / RFU ZSCAN30 (11745921_a_at) / Fold change /veh ZSCAN30 (11745921_a_at) / RFU CMKLR1 (11741424_a_at) / Fold change /veh CMKLR1 (11741424_a_at) / RFU LOC101060620 /// MAPK8IP1 (11723275_at) / Fold change /veh LOC101060620 /// MAPK8IP1 (11723275_at) / RFU SPTSSB (11747773_x_at) / Fold change /veh SPTSSB (11747773_x_at) / RFU PRSS12 (11739890_at) / Fold change /veh PRSS12 (11739890_at) / RFU BIN1 (11741810_x_at) / Fold change /veh BIN1 (11741810_x_at) / RFU WNT11 (11732464_a_at) / Fold change /veh WNT11 (11732464_a_at) / RFU C10orf10 (11716521_a_at) / Fold change /veh C10orf10 (11716521_a_at) / RFU C5orf56 (11738089_at) / Fold change /veh C5orf56 (11738089_at) / RFU CYB561 (11721691_x_at) / Fold change /veh CYB561 (11721691_x_at) / RFU ANKRD19P (11752326_a_at) / Fold change /veh ANKRD19P (11752326_a_at) / RFU OR2T12 /// OR2T33 /// OR2T8 (11738714_s_at) / Fold change /veh OR2T12 /// OR2T33 /// OR2T8 (11738714_s_at) / RFU VCAN (11748164_a_at) / Fold change /veh VCAN (11748164_a_at) / RFU JSRP1 (11732532_at) / Fold change /veh JSRP1 (11732532_at) / RFU KRTAP10-11 (11738290_x_at) / Fold change /veh KRTAP10-11 (11738290_x_at) / RFU MYO3A (11730013_a_at) / Fold change /veh MYO3A (11730013_a_at) / RFU EBF3 (11725865_a_at) / Fold change /veh EBF3 (11725865_a_at) / RFU CAMK2N1 (11719241_x_at) / Fold change /veh CAMK2N1 (11719241_x_at) / RFU C5orf56 (11738088_a_at) / Fold change /veh C5orf56 (11738088_a_at) / RFU OLFML3 (11715873_a_at) / Fold change /veh OLFML3 (11715873_a_at) / RFU LOC100653217 /// NTM (11731650_a_at) / Fold change /veh LOC100653217 /// NTM (11731650_a_at) / RFU MAPK11 (11762145_a_at) / Fold change /veh MAPK11 (11762145_a_at) / RFU FIZ1 (11724087_x_at) / Fold change /veh FIZ1 (11724087_x_at) / RFU OASL (11726364_x_at) / Fold change /veh OASL (11726364_x_at) / RFU SOX15 (11748057_x_at) / Fold change /veh SOX15 (11748057_x_at) / RFU CD79A (11719716_a_at) / Fold change /veh CD79A (11719716_a_at) / RFU HIST1H1D (11736915_at) / Fold change /veh HIST1H1D (11736915_at) / RFU CASKIN2 (11723855_a_at) / Fold change /veh CASKIN2 (11723855_a_at) / RFU LOC730098 (11760151_x_at) / Fold change /veh LOC730098 (11760151_x_at) / RFU OR4N2 (11742367_at) / Fold change /veh OR4N2 (11742367_at) / RFU PRRT2 (11749266_a_at) / Fold change /veh PRRT2 (11749266_a_at) / RFU SNX32 (11753110_a_at) / Fold change /veh SNX32 (11753110_a_at) / RFU CDHR5 (11726645_a_at) / Fold change /veh CDHR5 (11726645_a_at) / RFU RCAN1 (11760418_a_at) / Fold change /veh RCAN1 (11760418_a_at) / RFU FAM167A (11723789_a_at) / Fold change /veh FAM167A (11723789_a_at) / RFU FAM26E (11764081_at) / Fold change /veh FAM26E (11764081_at) / RFU ISYNA1 (11749810_s_at) / Fold change /veh ISYNA1 (11749810_s_at) / RFU ACY1 (11761880_at) / Fold change /veh ACY1 (11761880_at) / RFU 11764098_at / Fold change /veh 11764098_at / RFU SAMD14 (11745864_x_at) / Fold change /veh SAMD14 (11745864_x_at) / RFU NPB (11741838_a_at) / Fold change /veh NPB (11741838_a_at) / RFU TMPRSS6 (11731388_a_at) / Fold change /veh TMPRSS6 (11731388_a_at) / RFU KRTAP10-2 (11738614_at) / Fold change /veh KRTAP10-2 (11738614_at) / RFU ARHGAP8 /// PRR5-ARHGAP8 (11727945_x_at) / Fold change /veh ARHGAP8 /// PRR5-ARHGAP8 (11727945_x_at) / RFU KRTAP5-7 /// NADSYN1 (11734609_at) / Fold change /veh KRTAP5-7 /// NADSYN1 (11734609_at) / RFU RASL12 (11751679_a_at) / Fold change /veh RASL12 (11751679_a_at) / RFU CDKN2B (11736163_a_at) / Fold change /veh CDKN2B (11736163_a_at) / RFU PRF1 (11729649_at) / Fold change /veh PRF1 (11729649_at) / RFU, ZNF638 /// ZNF638-IT1 / Fold change vs veh, ZNF638 /// ZNF638-IT1 / RFU, PANK3 / Fold change vs veh, PANK3 / RFU, SH3YL1 / Fold change vs veh, SH3YL1 / RFU, ZEB2 / Fold change vs veh, ZEB2 / RFU, NRIP1 / Fold change vs veh, NRIP1 / RFU, PTTG1IP / Fold change vs veh, PTTG1IP / RFU, CAPN2 / Fold change vs veh, CAPN2 / RFU, MED14 / Fold change vs veh, MED14 / RFU, SNORA58 / Fold change vs veh, SNORA58 / RFU, C1orf63 / Fold change vs veh, C1orf63 / RFU, LRRFIP1 / Fold change vs veh, LRRFIP1 / RFU, NDUFAF7 / Fold change vs veh, NDUFAF7 / RFU, SLC12A2 / Fold change vs veh, SLC12A2 / RFU, IBTK / Fold change vs veh, IBTK / RFU, ESF1 / Fold change vs veh, ESF1 / Fold change vs veh, TMEM50B / RFU, TAOK1 / Fold change vs veh, TAOK1 / RFU, ACBD3 / Fold change vs veh, ACBD3 / RFU, TMA16 / Fold change vs veh, TMA16 / RFU, RWDD3 / Fold change vs veh, RWDD3 / RFU, BCAT1 / Fold change vs veh, BCAT1 / RFU, EDEM3 / Fold change vs veh, EDEM3 / RFU, TMEM33 / Fold change vs veh, TMEM33 / RFU, WDR75 / Fold change vs veh, WDR75 / RFU, AHCTF1 / Fold change vs veh, AHCTF1 / RFU, TFRC / Fold change vs veh, TFRC / RFU, ZDHHC17 / Fold change vs veh, ZDHHC17 / RFU, NOM1 / Fold change vs veh, NOM1 / RFU, ARL8B / Fold change vs veh, ARL8B / RFU, ZBTB11 / Fold change vs veh, ZBTB11 / RFU, TAMM41 / Fold change vs veh, TAMM41 / RFU, KIAA1704 /// LOC100996395 / Fold change vs veh, KIAA1704 /// LOC100996395 / RFU, ING1 / Fold change vs veh, ING1 / RFU, TRMT61B / Fold change vs veh, TRMT61B / RFU, FUBP3 / Fold change vs veh, FUBP3 / RFU, TP53 / Fold change vs veh, TP53 / RFU, TNKS2 / Fold change vs veh, TNKS2 / RFU, ZFP14 / Fold change vs veh, ZFP14 / RFU, ACTR2 / Fold change vs veh, ACTR2 / RFU, PPP3R1 / Fold change vs veh, PPP3R1 / RFU, PIK3R1 / Fold change vs veh, PIK3R1 / RFU, HNRNPA1 / Fold change vs veh, HNRNPA1 / RFU, RNF170 / Fold change vs veh, RNF170 / RFU, ZNF28 / Fold change vs veh, ZNF28 / RFU, RNGTT / Fold change vs veh, RNGTT / RFU, OGT / Fold change vs veh, OGT / RFU, BRD1 / Fold change vs veh, BRD1 / RFU, MARS / Fold change vs veh, MARS / RFU, ZNF655 / Fold change vs veh, ZNF655 / RFU, FAHD1 / Fold change vs veh, FAHD1 / RFU, BDP1 / Fold change vs veh, BDP1 / RFU, LRRCC1 / Fold change vs veh, LRRCC1 / RFU, ARID1A / Fold change vs veh, ARID1A / RFU, ZNF146 / Fold change vs veh, ZNF146 / RFU, ZNF330 / Fold change vs veh, ZNF330 / RFU, GPN3 / Fold change vs veh, GPN3 / RFU, C9orf123 / Fold change vs veh, C9orf123 / RFU, N4BP2L2 / Fold change vs veh, N4BP2L2 / RFU, ARFIP1 / Fold change vs veh, ARFIP1 / RFU, FAM179B / Fold change vs veh, FAM179B / RFU, BCL10 / Fold change vs veh, BCL10 / RFU, UHRF1BP1L / Fold change vs veh, UHRF1BP1L / RFU, BET1 / Fold change vs veh, BET1 / RFU, CNOT2 / Fold change vs veh, CNOT2 / RFU, ZNF268 / Fold change vs veh, ZNF268 / Fold change vs veh, ZNF507 / RFU, DGCR2 / Fold change vs veh, DGCR2 / RFU, WDSUB1 / Fold change vs veh, WDSUB1 / Fold change vs veh, HSP90B1 /// MIR3652 / RFU, ADSS / Fold change vs veh, ADSS / RFU, GK / Fold change vs veh, GK / RFU, ZNF148 / Fold change vs veh, ZNF148 / RFU, TAF9 / Fold change vs veh, TAF9 / RFU, SLC1A5 / Fold change vs veh, SLC1A5 / RFU, SLMO2 / Fold change vs veh, SLMO2 / RFU, ABCC4 / Fold change vs veh, ABCC4 / RFU, LOC101060439 /// RAP1B / Fold change vs veh, LOC101060439 /// RAP1B / RFU, RFX7 / Fold change vs veh, RFX7 / RFU, GTPBP10 / Fold change vs veh, GTPBP10 / RFU, CNEP1R1 / Fold change vs veh, CNEP1R1 / RFU, BIVM-ERCC5 /// ERCC5 / Fold change vs veh, BIVM-ERCC5 /// ERCC5 / RFU, ILF3 / Fold change vs veh, ILF3 / RFU 11762660_at / Fold change /veh 11762660_at / RFU VCAN (11757783_s_at) / Fold change /veh VCAN (11757783_s_at) / RFU DDX43 (11728927_at) / Fold change /veh DDX43 (11728927_at) / RFU KRT8 (11758188_x_at) / Fold change /veh KRT8 (11758188_x_at) / RFU NKD1 (11759106_at) / Fold change /veh NKD1 (11759106_at) / RFU SRD5A1 (11742802_a_at) / Fold change /veh SRD5A1 (11742802_a_at) / RFU TPSAB1 /// TPSB2 (11721975_s_at) / Fold change /veh TPSAB1 /// TPSB2 (11721975_s_at) / RFU GSTM3 (11746129_a_at) / Fold change /veh GSTM3 (11746129_a_at) / RFU IL23R (11737362_x_at) / Fold change /veh IL23R (11737362_x_at) / RFU TMEM51 (11727254_a_at) / Fold change /veh TMEM51 (11727254_a_at) / RFU PIWIL2 (11732686_x_at) / Fold change /veh PIWIL2 (11732686_x_at) / RFU ORM1 (11744905_x_at) / Fold change /veh ORM1 (11744905_x_at) / RFU CCDC152 (11743942_at) / Fold change /veh CCDC152 (11743942_at) / RFU ECM1 (11717891_a_at) / Fold change /veh ECM1 (11717891_a_at) / RFU IL23R (11748794_a_at) / Fold change /veh IL23R (11748794_a_at) / RFU TNFAIP8L3 (11732012_x_at) / Fold change /veh TNFAIP8L3 (11732012_x_at) / RFU MBOAT4 (11741988_at) / Fold change /veh MBOAT4 (11741988_at) / RFU 11764193_at / Fold change /veh 11764193_at / RFU TMEM53 (11763286_at) / Fold change /veh TMEM53 (11763286_at) / RFU MAGEB2 (11727129_at) / Fold change /veh MAGEB2 (11727129_at) / RFU TMEM200A (11744735_a_at) / Fold change /veh TMEM200A (11744735_a_at) / RFU CCDC152 (11751479_a_at) / Fold change /veh CCDC152 (11751479_a_at) / RFU FAM211A (11726209_a_at) / Fold change /veh FAM211A (11726209_a_at) / RFU RGS16 (11746705_a_at) / Fold change /veh RGS16 (11746705_a_at) / RFU VCAN (11755009_s_at) / Fold change /veh VCAN (11755009_s_at) / RFU RHOB (11743442_s_at) / Fold change /veh RHOB (11743442_s_at) / RFU RGS16 (11720943_a_at) / Fold change /veh RGS16 (11720943_a_at) / RFU RGS16 (11720944_at) / Fold change /veh RGS16 (11720944_at) / RFU, VPS4B / Fold change vs veh, VPS4B / RFU, CREB1 / Fold change vs veh, CREB1 / RFU, DNAJC13 / Fold change vs veh, DNAJC13 / RFU, GNAQ / Fold change vs veh, GNAQ / RFU, CDK5R1 / Fold change vs veh, CDK5R1 / RFU, ZRANB3 / Fold change vs veh, ZRANB3 / RFU, CUL4A / Fold change vs veh, CUL4A / RFU, CCNY / Fold change vs veh, CCNY / RFU, UFL1 / Fold change vs veh, UFL1 / RFU, COG3 / Fold change vs veh, COG3 / RFU, DIAPH2 / Fold change vs veh, DIAPH2 / RFU, SKA2 / Fold change vs veh, SKA2 / RFU, AFF3 / Fold change vs veh, AFF3 / RFU, LMF1 / Fold change vs veh, LMF1 / RFU, IPO11 / Fold change vs veh, IPO11 / RFU, DFFB / Fold change vs veh, DFFB / RFU, FOXP1 / Fold change vs veh, FOXP1 / RFU, CARD8 / Fold change vs veh, CARD8 / RFU, STRN3 / Fold change vs veh, STRN3 / RFU, ADK / Fold change vs veh, ADK / RFU, RASSF2 / Fold change vs veh, RASSF2 / RFU, WIPF1 / Fold change vs veh, WIPF1 / RFU, LARP1B / Fold change vs veh, LARP1B / RFU, RASA1 / Fold change vs veh, RASA1 / RFU, RB1 / Fold change vs veh, RB1 / RFU, PPFIA1 / Fold change vs veh, PPFIA1 / RFU, MAT2A / Fold change vs veh, MAT2A / RFU, CCT5 / Fold change vs veh, CCT5 / RFU, WDR92 / Fold change vs veh, WDR92 / RFU, CUX1 / Fold change vs veh, CUX1 / RFU, TTC7A / Fold change vs veh, TTC7A / RFU, TMEM135 / Fold change vs veh, TMEM135 / RFU, DEPTOR / Fold change vs veh, DEPTOR / RFU, CPM / Fold change vs veh, CPM / RFU, DNAJB6 / Fold change vs veh, DNAJB6 / RFU, CACNA2D3 / Fold change vs veh, CACNA2D3 / RFU, DTX4 / Fold change vs veh, DTX4 / RFU, TFCP2 / Fold change vs veh, TFCP2 / RFU, GMCL1 /// GMCL1P1 / Fold change vs veh, GMCL1 /// GMCL1P1 / RFU, AEBP2 / Fold change vs veh, AEBP2 / RFU, SNHG1 /// SNORD22 /// SNORD25 /// SNORD26 /// SNORD27 /// SNORD28 /// SNORD29 /// SNORD31 / Fold change vs veh, SNHG1 /// SNORD22 /// SNORD25 /// SNORD26 /// SNORD27 /// SNORD28 /// SNORD29 /// SNORD31 / Fold change (Aza/veh), C12orf56 (ProbeSet 11735607_a_at) / Fold change (ACY-1035/veh), C12orf56 (ProbeSet 11735607_a_at) / Fold change (Aza/veh), FGFR1OP (ProbeSet 11751329_s_at) / Fold change (ACY-1035/veh), FGFR1OP (ProbeSet 11751329_s_at) / Fold change (Aza/veh), VPS36 (ProbeSet 11739960_a_at) / Fold change (ACY-1035/veh), VPS36 (ProbeSet 11739960_a_at) / RFU SYPL1 (11715823_x_at) / Fold change /veh SYPL1 (11715823_x_at) / RFU IGFBP7 (11715501_s_at) / Fold change /veh IGFBP7 (11715501_s_at) / RFU REEP3 (11722064_at) / Fold change /veh REEP3 (11722064_at) / RFU IGLL1 (11728026_x_at) / Fold change /veh IGLL1 (11728026_x_at): dose or concentration left out as unconfirmed
Conditions: ProbeSet 11747888_a_at; LIST D

In the case of Nc1ccc(-c2cccs2)cc1NC(=O)c1ccc2c(c1)cc(C1CC1)n2CCN1CCOCC1 [ACY-1035], the “RFU, SH3YL1” value is reported as 63.67 RFU.
